Values joined by “and” are separate entries in the source; they are usually repeats but may differ in a detail not shown here. Equal entries are not always repeated. Toxic doses and inconclusive results are not listed.
Test system: L1210 leukemia ip in BDF1 mice, survival T/C
Assay: NCI In Vivo Anticancer Drug Screen. Data for tumor model L1210 Leukemia (intraperitoneal) in B6D2F1 (BDF1) mice
Conditions: endpoint: mean survival time, higher = longer survival
Procedure, shortened: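 Each compound was tested against a transplantable tumor grown in mice. The endpoint was survival, with treated animals benchmarked against vehicle controls as a simple ratio.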

[1] = dose: 100.0 mg/kg/injection, schedule: Q04DX003 (ip), vehicle: saline with Tween-80
[2] = dose: 400.0 mg/kg/injection, schedule: Q04DX003 (ip), vehicle: saline with Tween-80
[3] = dose: 400.0 mg/kg/injection, schedule: Q01DX001 (ip), vehicle: saline
[4] = dose: 100.0 mg/kg/injection, schedule: Q04DX003 (ip), vehicle: Klucel (hydroxypropylcellulose) (HPC)
[5] = dose: 200.0 mg/kg/injection, schedule: Q04DX003 (ip), vehicle: Klucel (hydroxypropylcellulose) (HPC)
[6] = dose: 400.0 mg/kg/injection, schedule: Q04DX003 (ip), vehicle: Klucel (hydroxypropylcellulose) (HPC)
[7] = dose: 100.0 mg/kg/injection, schedule: Q01DX001 (ip), vehicle: Klucel (hydroxypropylcellulose) (HPC)
[8] = dose: 200.0 mg/kg/injection, schedule: Q01DX001 (ip), vehicle: Klucel (hydroxypropylcellulose) (HPC)
[9] = dose: 400.0 mg/kg/injection, schedule: Q01DX001 (ip), vehicle: Klucel (hydroxypropylcellulose) (HPC)
[10] = dose: 100.0 mg/kg/injection, schedule: Q04DX002 (ip), vehicle: saline with Tween-80
[11] = dose: 200.0 mg/kg/injection, schedule: Q04DX002 (ip), vehicle: saline with Tween-80
[12] = dose: 400.0 mg/kg/injection, schedule: Q04DX002 (ip), vehicle: saline with Tween-80
[13] = dose: 100.0 mg/kg/injection, schedule: Q01DX009 (ip), vehicle: Klucel (hydroxypropylcellulose) (HPC)
[14] = dose: 200.0 mg/kg/injection, schedule: Q01DX009 (ip), vehicle: Klucel (hydroxypropylcellulose) (HPC)
[15] = dose: 50.0 mg/kg/injection, schedule: Q04DX003 (ip), vehicle: alcohol
[16] = dose: 100.0 mg/kg/injection, schedule: Q04DX003 (ip), vehicle: alcohol
[17] = dose: 200.0 mg/kg/injection, schedule: Q04DX003 (ip), vehicle: alcohol
[18] = dose: 200.0 mg/kg/injection, schedule: Q04DX003 (ip), vehicle: saline with Tween-80

Compound: CCOC(=O)CNc1ccc(C(=O)OCC)s1
- T/C (dose: 31.25 mg/kg/injection, schedule: Q01DX009 (ip), vehicle: acetone): 98 % of control
- T/C (dose: 62.5 mg/kg/injection, schedule: Q01DX009 (ip), vehicle: acetone): 100 % of control
- T/C (dose: 125.0 mg/kg/injection, schedule: Q01DX009 (ip), vehicle: acetone): 96 % of control
- T/C (dose: 190.0 mg/kg/injection, schedule: Q01DX009 (ip), vehicle: saline): 94 % of control
- T/C (dose: 285.0 mg/kg/injection, schedule: Q01DX009 (ip), vehicle: saline): 88 % of control

Compound: O=C(OCCl)c1ccc(Cl)cc1Cl
- T/C [1]: 87 % of control
- T/C [2]: 88 % of control

Compound: N#CC12CCCCC(=O)N1C=Cc1ccccc12 (stereo not given)
- T/C (dose: 100.0 mg/kg/injection, schedule: Q01DX001 (ip), vehicle: saline): 96 % of control
- T/C (dose: 200.0 mg/kg/injection, schedule: Q01DX001 (ip), vehicle: saline): 96 % of control
- T/C [3]: 93 % of control

Compound: O=C1NC2C3CCC(C3)C12 (stereo not given)
- T/C (dose: 10.0 mg/kg/injection, schedule: Q04DX002 (ip), vehicle: saline): 90 % of control
- T/C (dose: 20.0 mg/kg/injection, schedule: Q04DX002 (ip), vehicle: saline): 107 % of control
- T/C (dose: 40.0 mg/kg/injection, schedule: Q04DX002 (ip), vehicle: saline): 93 % of control

Compound: CC(Br)(CBr)CCC(C)(Br)CBr (stereo not given)
- T/C [4]: 94 % of control
- T/C [5]: 96 % of control
- T/C [6]: 91 % of control

Compound: CCCCOCCOc1ccc(C(=O)O)cc1
- T/C (dose: 100.0 mg/kg/injection, schedule: Q01DX001 (ip), vehicle: other): 106 % of control
- T/C (dose: 100.0 mg/kg/injection, schedule: Q04DX003 (ip), vehicle: saline): 87 % of control
- T/C (dose: 200.0 mg/kg/injection, schedule: Q01DX001 (ip), vehicle: other): 94 % of control
- T/C (dose: 200.0 mg/kg/injection, schedule: Q04DX003 (ip), vehicle: saline): 94 % of control
- T/C (dose: 400.0 mg/kg/injection, schedule: Q01DX001 (ip), vehicle: other): 103 % of control
- T/C (dose: 400.0 mg/kg/injection, schedule: Q04DX003 (ip), vehicle: saline): 87 % of control

Compound: OC1/C(=C/c2ccco2)CCC2CCCCC21 (stereo not given)
- T/C [7]: 101 % of control
- T/C [8]: 98 % of control
- T/C [9]: 90 % of control

Compound: Cc1ccc(SS(=O)(=O)c2ccc(C)cc2)cc1
- T/C [7]: 86 % of control
- T/C (dose: 100.0 mg/kg/injection, schedule: Q01DX009 (ip), vehicle: saline sonified): 116 % of control
- T/C [4]: 114 % of control
- T/C [8]: 86 % of control
- T/C (dose: 200.0 mg/kg/injection, schedule: Q01DX009 (ip), vehicle: saline sonified): 102 % of control
- T/C [5]: 101 % of control
- T/C (dose: 400.0 mg/kg/injection, schedule: Q01DX009 (ip), vehicle: saline sonified): 107 % of control
- T/C [6]: 106 % of control

Compound: CC(C)(C)c1cc(O)cc(C(C)(C)C)c1
- T/C [10]: 100 % of control
- T/C [11]: 97 % of control
- T/C [12]: 100 % of control

Compound: O=C(/C=C/c1ccccc1)NN1CCCCC1
- T/C [13]: 94 % of control
- T/C [4]: 100 % of control
- T/C [14]: 110 % of control
- T/C [5]: 98 % of control

Compound: CCO/C(C)=N/OC(=O)c1cc(Cl)ccc1Cl
- T/C (dose: 100.0 mg/kg/injection, schedule: Q04DX002 (ip), vehicle: Klucel (hydroxypropylcellulose) (HPC)): 98 % of control
- T/C (dose: 200.0 mg/kg/injection, schedule: Q04DX002 (ip), vehicle: Klucel (hydroxypropylcellulose) (HPC)): 110 % of control
- T/C (dose: 400.0 mg/kg/injection, schedule: Q04DX002 (ip), vehicle: Klucel (hydroxypropylcellulose) (HPC)): 113 % of control

Compound: O=[N+]([O-])c1ccc2nc(-c3ccccc3)c(-c3ccccc3)nc2c1
- T/C [13]: 102 % of control
- T/C [4]: 98 % of control
- T/C [14]: 105 % of control
- T/C [5]: 104 % of control
- T/C (dose: 400.0 mg/kg/injection, schedule: Q01DX009 (ip), vehicle: Klucel (hydroxypropylcellulose) (HPC)): 96 % of control
- T/C [6]: 104 % of control

Compound: N#Cc1ccccc1OCCCCCCCCCCOc1ccccc1C#N
- T/C (dose: 75.0 mg/kg/injection, schedule: Q01DX009 (ip), vehicle: Klucel (hydroxypropylcellulose) (HPC)): 99 % of control
- T/C (dose: 150.0 mg/kg/injection, schedule: Q01DX009 (ip), vehicle: Klucel (hydroxypropylcellulose) (HPC)): 92 % of control
- T/C (dose: 300.0 mg/kg/injection, schedule: Q01DX009 (ip), vehicle: Klucel (hydroxypropylcellulose) (HPC)): 90 % of control

Compound: O=C(Nc1cc(Cl)c(Cl)cc1Cl)Nc1cc(Cl)ccc1Oc1ccc(Cl)cc1S(=O)(=O)O
- T/C [15]: 97 % of control
- T/C [16]: 103 % of control
- T/C [17]: 103 % of control

Compound: CNC(=S)NNC(=O)c1ccncc1
- T/C [10]: 100 % of control
- T/C [11]: 100 % of control
- T/C [12]: 100 % of control

Compound: CCOC(=O)CC(=O)Cc1cccc([N+](=O)[O-])c1
- T/C [13]: 91 % of control
- T/C [4]: 100 % of control
- T/C [14]: 88 % of control
- T/C [5]: 107 % of control
- T/C [6]: 107 % of control

Compound: Nc1nc(N)c2nc3c(nc2n1)C(=O)N(c1ccc(C(=O)O)cc1)C3
- T/C (dose: 12.5 mg/kg/injection, schedule: Q01DX001 (ip), vehicle: saline): 102 % of control
- T/C (dose: 25.0 mg/kg/injection, schedule: Q01DX001 (ip), vehicle: saline): 91 % of control
- T/C (dose: 50.0 mg/kg/injection, schedule: Q01DX001 (ip), vehicle: saline): 102 % of control
- T/C (dose: 100.0 mg/kg/injection, schedule: Q01DX009 (ip), vehicle: saline): 90 % of control

Compound: O=C1NC(=O)C2C3C=CC(C3)C12 (stereo not given)
- T/C (dose: 50.0 mg/kg/injection, schedule: Q01DX001 (ip), vehicle: Klucel (hydroxypropylcellulose) (HPC)): 101 % of control
- T/C [7]: 99 % of control
- T/C [8]: 101 % of control

Compound: CCOc1ccc(C(/C(Cl)=N/O)C(Cl)(Cl)Cl)cc1 (stereo not given)
- T/C (dose: 12.5 mg/kg/injection, schedule: Q04DX003 (ip), vehicle: acetone): 93 % of control
- T/C (dose: 25.0 mg/kg/injection, schedule: Q04DX003 (ip), vehicle: acetone): 97 % of control
- T/C (dose: 50.0 mg/kg/injection, schedule: Q04DX003 (ip), vehicle: acetone): 92 % of control

Compound: CC(C)C1C(=O)N2CCCC2C2(O)OC(C(=O)NCCc3ccccc3)(C(C)C)C(=O)N12 (stereo not given)
- T/C (dose: 25.0 mg/kg/injection, schedule: Q04DX003 (ip), vehicle: alcohol): 98 % of control
- T/C [15]: 105 % of control and 100 % of control
- T/C [16]: 100 % of control and 104 % of control
- T/C [17]: 100 % of control and 102 % of control
- T/C (dose: 400.0 mg/kg/injection, schedule: Q04DX003 (ip), vehicle: alcohol): 93 % of control

Compound: Nc1cccc2c1C(=O)c1cccc(Cl)c1C2=O
- T/C [1]: 94 % of control
- T/C [18]: 101 % of control
- T/C [2]: 94 % of control

Compound: Nc1nc(=S)c2ncn(C3OC(COC(=O)c4ccccc4)C(OC(=O)c4ccccc4)C3OC(=O)c3ccccc3)c2[nH]1 (stereo not given)
- T/C (dose: 0.1 mg/kg/injection, schedule: Q01DX009 (ip), vehicle: saline): 104 % of control
- T/C (dose: 0.3 mg/kg/injection, schedule: Q01DX009 (ip), vehicle: saline): 118 % of control
- T/C (dose: 0.6 mg/kg/injection, schedule: Q01DX009 (ip), vehicle: saline): 118 % of control
- T/C (dose: 5.0 mg/kg/injection, schedule: Q01DX009 (ip), vehicle: saline): 159 % of control
- T/C (dose: 29.0 mg/kg/injection, schedule: Q01DX Z (ip), vehicle: methylcellulose (MC)): 116 % of control
- T/C (dose: 45.0 mg/kg/injection, schedule: Q01DX009 (ip), vehicle: saline): 164 % of control
- T/C (dose: 100.0 mg/kg/injection, schedule: Q01DX Z (ip), vehicle: methylcellulose (MC)): 153 % of control
- T/C (dose: 175.0 mg/kg/injection, schedule: Q01DX009 (ip), vehicle: saline): 98 % of control
- T/C (dose: 265.0 mg/kg/injection, schedule: Q01DX001 (ip), vehicle: saline): 118 % of control
- T/C [3]: 86 % of control

Compound: C#CC(C)(C)OC(C)=O
- T/C [7]: 99 % of control
- T/C [1]: 92 % of control
- T/C [8]: 99 % of control
- T/C [18]: 103 % of control
- T/C [9]: 104 % of control
- T/C [2]: 92 % of control

Compound: COC(=O)NC1CC2C=CC1C1C=CC21 (stereo not given)
- T/C [1]: 92 % of control
- T/C [18]: 91 % of control
- T/C [2]: 100 % of control
